Patent US4935520A, “Compound, oleyl-2-pyridinioethyl phosphate having antifungal and antiprotozoal properties” (Takeda Chemical Industries, Ltd., priority 1982, dated 1990)
Read-outs that look alike come from different tables or passages of the source.

What was measured:
sarcoma 180 = test: Effects against sarcoma 180 (survival rate, ICR mice); assay type: in vivo; settings: 1 mg per mouse i.p., four days before 1×10^5 cells of sarcoma 180 i.p.; vs physiological saline control
[1] = test system: Tetrahymena pyriformis W strain; test: Antiprotozoal activity, MIC; assay type: cell-based; settings: broth dilution method, pH 7.0, 28° C., 44 to 48 hours; for MIC: Tetrahymena pyriformis, read-out: MIC against Tetrahymena pyriformis W strain
Procedure: The antiprotozoal activity values as shown in Table 4 were assayed using Tetrahymena pyriformis W strain as the test organism and an assay medium composed of 20 g of tryptose peptone (manufactured by Difco), 1 g of yeast extract, 2 g of glucose, 1000 ml of distilled water and 10 ml of 1M phosphate buffer (pH 7.0). The incubation was continued at 28° C. for 44 to 48 hours and the minimum inhibitory concentration (MIC) of the compounds of this invention was determined by the broth dilution method.

[2] = test system: Botrytis cinerea IFO-5365; test: Antifungal activity, MIC; assay type: cell-based
[3] = test system: Pyricularia oryzae IFO-5279; test: microbe, parasite or virus in culture; assay type: cell-based; settings: IFO5279
[4] = test system: Colletctrichum lagenarium IFO-6207; test: Antifungal activity, MIC; assay type: cell-based
[5] = test system: Helminthosporium oryzae IFO-7503; test: Antifungal activity, MIC; assay type: cell-based; settings: Bipolaris oryzae, IFO7503
[6] = test system: Helminthosporium sigmoideum IFO-4867; test: Antifungal activity, MIC; assay type: cell-based; settings: Nakataea oryzae, IFO4867
[7] = test system: Aspergillus niger IFO-6341; test: Antifungal activity, MIC; assay type: cell-based; settings: IFO6341, test organism 1, 1% glucose-bouillon agar medium, serial dilution method
Procedure: The antimycotic (antifungal) activity values as shown in Table 3 were assayed on various organisms including phytopathogenic microorganisms using 1% glucose-bouillon agar medium, and the minimum inhibitory concentration (MIC) was determined by the serial dilution method.

[8] = test system: Saccharomyces cerevisiae IFO-0209; test: Antifungal activity, MIC; assay type: cell-based
Gibberella fujiknroi = test: Antifungal activity, MIC; assay type: cell-based
[9] = test system: Penicillium citrinum IFO-6352; test: Antifungal activity, MIC; assay type: cell-based
MM46 carcinoma = test: Effects against MM46 (surviving mice, C3H/He mice); assay type: in vivo; settings: 24th day after transplantation of 1×10^4 MM46 cells i.p.; 250 μg i.p., eight times in total
Procedure: To each of C3H/He mice group was transplanted intraperitoneally 1×10^4 cells of MM46 carcinoma. Four times from five days to two days before the transplantation and four times from two days to five days after the transplantation, eight times in total, 250 μg of the test compound dissolved in 0.2 ml of physiological saline was administered intraperitoneally. The number of mice surviving on the 24th day after transplantation of the carcinoma cells was compared with that of the control group administered with saline.

[10] = IFO5365, test organism 7, 1% glucose-bouillon agar medium, serial dilution method, read-out: MIC
[11] = test organism 8, 1% glucose-bouillon agar medium, serial dilution method, read-out: MIC
[12] = IFO0209, test organism 3, 1% glucose-bouillon agar medium, serial dilution method, read-out: MIC
[13] = IFO6352, test organism 2, 1% glucose-bouillon agar medium, serial dilution method, read-out: MIC
[14] = test organism 9, 1% glucose-bouillon agar medium, serial dilution method, read-out: MIC

Compound | Survival Rate (T/C) (sarcoma 180) | MIC [1] [µg/mL] | MIC ([2]; IFO5365) [µg/mL] | MIC [3] [µg/mL] | MIC [4] [µg/mL] | MIC [5] [µg/mL] | MIC [6] [µg/mL] | MIC [7] [µg/mL] | MIC ([8]; IFO0209) [µg/mL] | MIC (Gibberella fujiknroi) [µg/mL] | MIC ([9]; IFO6352) [µg/mL] | MIC [2, 10] [µg/mL] | MIC [6, 11] [µg/mL] | MIC [8, 12] [µg/mL] | MIC (Gibberella fujiknroi; test organism 6, 1% glucose-bouillon agar medium, serial dilution method, read-out: MIC) [µg/mL] | MIC [9, 13] [µg/mL] | Surviving mice/Test mice (MM46 carcinoma) | MIC [4, 14] [µg/mL] | MIC against Tetrahymena pyriformis W strain [1] [µg/mL]
CCCCCCCCCCCCCCCCCCCCCCOP(=O)([O-])OCC[N+](C)(C)C [Production Example 5, Docosyl trimethylammonioethyl phosphate] | 167 | > 4 | – | – | – | – | – | – | – | – | – | – | – | – | – | – | – | – | –
CCCCCCCCCCCCCCOP(=O)([O-])OCC[N+](C)(C)C [Production Example 1, Tetradecyl 2-trimethylammonioethyl phosphate] | 217 | 2 | 25 | 3.12 | 3.12 | 12.5 | 6.25 | 12.5 | 12.5 | 25 | 6.25 | – | – | – | – | – | – | – | –
CCCCCCCC/C=C\CCCCCCCCOP(=O)([O-])OCC[n+]1ccccc1 [Production Example 4, Oleyl 2-pyridinioethyl phosphate] | 308 | – | – | 3.12 | 50 | 50 | – | 50 | – | – | – | 6.25 | 6.25 | 25 | 25 | 25 | 2/5 | – | –
CC(C)CCCC(C)CCCC(C)CCCC(C)CCOP(=O)([O-])OCC[N+](C)(C)C (stereo not shown) [Production Example 7, 3,7,11,15-Tetramethylhexadecyl 2-trimethylammonioethyl phosphate] | – | 4 | 25 | 1.56 | – | – | – | – | – | 6.25 | – | – | – | – | – | – | – | 100 | –
CCCCCCCC/C=C\CCCCCCCCOP(=O)([O-])OCC[N+](C)(C)C [Production Example 3, Oleyl 2-trimethylammonioethyl phosphate] | 302 | 0.4 | – | 1.56 | – | 12.5 | 1.56 | 12.5 | – | 12.5 | – | 3.12 | – | 6.25 | – | 25 | 3/5 | 50 | –
2-Trimethylammonioethyl cetyl phosphonate [Production Example 8] | – | – | – | – | – | – | – | – | – | – | – | – | – | – | – | – | – | – | 2
CCCCCCCCC(CCCCCCCC)OP(=O)([O-])OCC[N+](C)(C)C [Production Example 11, (1-Octyl)nonyl 2-trimethylammonioethyl phosphate] | 282 | ≤ 1 | – | – | – | – | – | – | – | – | – | – | – | – | – | – | – | – | –
CCCCCCCCCCCCCCC/C=C/COP(=O)([O-])OCC[N+](C)(C)C [Production Example 10, (E)-2-Octadecenyl 2-trimethylammonioethyl phosphate] | – | ≤ 1 | – | – | – | – | – | – | – | – | – | – | – | – | – | – | – | – | –
CCCCCCCCCCCCCCOP(=O)([O-])OCC[n+]1ccccc1 [Production Example 2, Tetradecyl 2-pyridinioethyl phosphate] | 152 | ≥ 4 | 50 | 3.12 | 3.12 | 25 | – | 25 | 50 | 25 | – | – | 12.5 | – | – | 12.5 | – | – | –
CCCCCCCCCCCCCCCCCCOP(=O)([O-])OCC[N+](C)(C)C [Production Example 6, Stearyl 2-trimethylammonioethyl phosphate] | 200 | ≤ 1 | 6.25 | 6.25 | – | 50 | 3.12 | 25 | 12.5 | 50 | 25 | – | – | – | – | – | – | 100 | –
